Data published in patent US6900216B2, “Dihydroimidazo[2,1-b]thiazole and dihydro-5h-thiazolo[3,2-A]pyrimidines as antidepressant agents” (Knoll GmbH, priority 2000, dated 2005).

Biological target: T1, noradrenaline (NA) reuptake sites (Rattus norvegicus, UniProt Q63380)
T1 construct: Frontal cortical tissue from the brains of male Charles River rats; from tissue; host or cells: rat frontal cortical membranes
Assay: NA uptake: displacement of [3H]nisoxetine from noradrenaline reuptake sites, rat frontal cortical membranes
Assay type: binding
Conditions: [3H]nisoxetine 0.6 nM, rat frontal cortical membranes; fit to data from three experiments
Protocol: Frontal cortical tissue from the brains of male Charles River rats weighing 150-250 g was homogenised in ice-cold 50 mM Tris-HCl, pH 7.4 (at 25° C.) containing 120 mM sodium chloride and 5 mM potassium chloride (Tris buffer; 1:60 w/v) using a Kinematic polytron (speed setting 6 for 10 seconds) and centrifuged at 40,000 g for 10 minutes. The supernatant was discarded and the pellet rehomogenised in Tris buffer, 1:60 w/v, and centrifuged at 40,000 g for 10 minutes. This step was repeated twice more so that, in total, the brain tissue was homogenised and centrifuged four times. The final pellet was resuspended in 50 mM Tris-HCl, pH 7.4 containing 300 mM sodium chloride and 5 mM potassium chloride (equivalent to 18.75 mg wet weight of tissue/ml) and used immediately in the binding assay. All centrifugations were performed at 4° C.
Membranes (400 μl; equivalent to 7.5 mg wet weight of tissue/tube) were incubated with 50 μl [^3H]nisoxetine at a single concentration of 0.6 nM and 50 μl of distilled water (total binding) or 50 μl^− of test compound (at a single concentration 10^−6M or at 10 concentrations ranging from 10^−11-10^−3 M) or 50 μl of mazindol (1 μM; non-specific binding) for 4 h at 4° C. Membrane bound radioactivity was recovered by filtration under vacuum through Skatron 11734 filters using a Skatron cell harvester. Filters were rapidly washed with ice-cold 50 mM Tris-HCl, pH 7.4 containing 120 mM sodium chloride and 5 mM potassium chloride (wash setting 9,9,0). The scored filter paper discs were punched out into vials, scintillation fluid added and radioactivity determined by liquid scintillation counting.
For each of these tests measuring the ability of compounds of Formula I to displace standard ligands from 5-HT1A receptors and 5-hydroxytryptamine (5-HT) and noradrenaline (NA) reuptake sites and muscarinic receptors in vitro, the percentage displacement of specific binding of tritiated ligand by 10^−6 M test compound was calculated in the following way.
Firstly, specific binding of tritiated ligand in the absence (A) and presence (B) of test compound was determined:
In the absence of compound: A(dpm)=Total binding (dpm)−Non-specific binding (dpm) In the presence of compound (10^−6 M): B(dpm)=Binding at 10^−6M (dpm)−Non-specific binding (dpm)
The specific binding of tritiated ligand in the presence (B) of compound was then converted to a percentage of specific binding of tritiated ligand in the absence (A) of compound: % Specific binding at 10^−6 M=B(dpm)/A(dpm)×100
The percentage displacement of specific binding of tritiated ligand by the test compound (10^−6 M) was then obtained by subtraction of the percentage specific binding in the presence of compound from the percentage specific binding in the absence of compound, which is taken as the maximum binding and so equals 100%:
% Displacement at 10^−6 M=100−% Specific binding at 10^−6 M.
In some cases, displacement curves were then produced for compounds which displaced ≧50% of specific binding of the tritiated ligand at 10^−6 M using a range of concentrations of the compound. The Ki was then calculated by simultaneous fitting using equations derived from the Feldman equations by robust non-linear regression to data from three experiments simultaneously (De Lean et al., 1978; Munson and Rodbard, 1980; Feldman, 1992). Munson P J and Rodbard D. Ligand: a versatile computerised approach for characterisation of ligand binding systems. Anal Biochem 1980; 107: 220. Feldman HA. Mathematical theory of complex ligand binding systems at equilibrium: some methods for parameter fitting. Anal Biochem 1992: 48, 317. De Lean A, Munson P J and Rodbard D. Simultaneous analysis of families of sigmoidal curves: application to bioassay, radioligand assay, and physiological dose-response curves. Am J Physiol 1978: 235 (2), E97-E102. […]

T1 sequence (Q63380 1-617): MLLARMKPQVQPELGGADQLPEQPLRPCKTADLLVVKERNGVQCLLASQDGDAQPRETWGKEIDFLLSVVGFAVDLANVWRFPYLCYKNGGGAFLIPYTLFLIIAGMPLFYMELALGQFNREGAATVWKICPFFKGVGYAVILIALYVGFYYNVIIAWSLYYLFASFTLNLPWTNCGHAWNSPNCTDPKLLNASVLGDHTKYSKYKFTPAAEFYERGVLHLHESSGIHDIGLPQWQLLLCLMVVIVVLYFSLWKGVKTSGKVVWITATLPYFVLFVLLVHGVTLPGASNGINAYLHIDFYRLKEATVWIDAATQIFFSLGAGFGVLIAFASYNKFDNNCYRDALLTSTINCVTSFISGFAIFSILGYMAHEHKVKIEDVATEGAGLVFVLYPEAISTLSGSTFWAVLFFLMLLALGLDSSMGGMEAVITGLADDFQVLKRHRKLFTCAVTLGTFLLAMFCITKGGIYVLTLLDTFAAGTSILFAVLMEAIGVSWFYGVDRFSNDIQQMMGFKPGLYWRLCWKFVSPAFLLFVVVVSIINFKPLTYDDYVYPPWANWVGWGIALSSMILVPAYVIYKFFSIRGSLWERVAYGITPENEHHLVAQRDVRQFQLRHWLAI

Row | Compound | Ki [nM]
1 | CSC1=C(c2cccc3sccc23)N2CCN=C2S1.O=C(O)/C=C/C(=O)O [Example 32, 3-(benzo[b]thiophen-4-yl)-2-(methylthio)-5,6-dihydroimidazo[2,1-b]thiazole fumarate] | 3.5
2 | Br.Oc1cccc2sc(C3=CSC4=NCCN34)cc12 [Example 12, 2-(5,6-dihydroimidazo[2,1-b]thiazol-3-yl)benzo[b]thiophen-4-ol hydrobromide] | 5.8
3 | OCC1=C(c2cc3ccccc3s2)N2CCN=C2S1 [Example 15, [3-(benzo[b]thiophen-2-yl)-5,6-dihydroimidazo[2,1-b]thiazol-2-yl]methanol] | 18
4 | Br.CC1=C(c2ccc3ccsc3c2)N2CCN=C2S1 [Example 37, 3-(benzo[b]thiophen-6-yl)-2-methyl-5,6-dihydroimidazo[2,1-b]thiazole hydrobromide] | 7.4

Same assay, conditions: read-out: NA uptake % displacement at 10^−6 M

Row | Compound | inhibition at 1 µM [%]
5 | Cl.Fc1cccc2sc(C3=CSC4=NCCN34)cc12 [Example 5, 3-(4-fluorobenzo[b]thiophen-2-yl)-5,6-dihydroimidazo[2,1-b]thiazole hydrochloride] | 100
6 | Br.COc1cccc2cc(C3=C(C)SC4=NCCN43)sc12 [Example 26, 3-(7-methoxybenzo[b]thiophen-2-yl)-2-methyl-5,6-dihydroimidazo[2,1-b]thiazole hydrobromide] | -3
